Entries after “also recorded” stand apart in the source; their conditions may differ.

The experiment deals with ccombodies 2D8, 5G11, 6D2, and 4A1. Nature of the experiment: Competitive ELISA of monosaccharide haptens against ccombody binding to BSA-CC-Neu5Ac. The arrangement: species or system Eptatretus burgeri. The settings on record: hapten 50 to 0.39 mM, all four candidates. As for the experimental part:
ELISA was carried out according to the method of Lazarte et al., with some modifications. Screening for sialic acid-binding ccombodies was carried out by coating 100 μL of a 300 ng/well BSA-CC-Neu5Ac glycoconjugate onto high-binding 96-well ELISA plates (Corning, Glendale, AZ, USA), along with BSA only (without CC) as a negative control. Plates were left standing overnight at 4 °C, after which they were washed three times with 1X TBST (10 mM Tris-HCl, 150 mM NaCl, and 0.5% Tween) to remove unbound antigen. Plates were blocked for 30 min with blocking buffer comprising 5% skimmed milk in 1× TBST at room temperature, then washed once with 1X TBST. Ccombody supernatants from HEK293F cells were then added onto the plates, incubated for 1 h 30 min, followed by washing three times with 1X TBST. Antigen bound ccombodies were detected with mouse anti-VLRB antibody (11G5) in blocking buffer by incubation for 1 h, followed by washing three times to remove unbound 11G5. Finally, bound 11G5 antibodies were detected by incubating for 1 h with HRP-conjugated goat anti-mouse IgG (1:5000 v/v in blocking buffer), then washed four times. Binding was quantified by the addition of 100 μL developing buffer composed of 42 mM 3,3′,5,5′-tetramethylbenzidine and 1% H2O2, then color development for 30 min at room temperature. The reaction was stopped by adding 50 μL of 2 M H2SO4. The absorbance was then read at 450 nm using an xMark (BIO-RAD, Hercules, CA USA) microplate reader. Competitive inhibition was determined through ELISA as presented earlier, with some modifications. Optimal subsaturating dilutions of ccombody-culture supernatants were used based on the preliminary antibody titration data. Competitive inhibitors, two-fold serially diluted (50 to 0.39 mM), were mixed with a constant amount of ccombody supernatant diluted in 5% skimmed milk in 1X TBST, then incubated for 1 h at room temperature. Next, 100 μL of the mixture was subsequently transferred into another 96-well ELISA plate containing a constant amount of antigen (500 ng/well) which was pre-blocked with 5% skimmed milk in 1X TBST. Antigen-bound ccombodies were detected by 11G5 and HRP-conjugated goat anti-mouse IgG. The normalized and background-corrected OD450 values were plotted against the ligand concentration, and the half-maximal inhibitory concentration (IC50) was computed by curve fitting using the Four Parameter Logistic (4PL) Curve Calculator [27]. Values are expressed as the mean of three determinations.
In general terms: In an ELISA, binding on a coated surface is turned into a signal by an enzyme label.
With `CC(=O)N[C@@H]1[C@@H](O)[C@@H](O)[C@@H](CO)O[C@@H]1O` [N-acetylgalactosamine], the “Inhibition of ccombody binding by free hapten” value (“Inhibition … by free hapten” for short) is recorded as “No significant inhibition”.

On to `CC(=O)N[C@@H]1[C@@H](O)[C@H](O)[C@@H](CO)O[C@H]1O` [N-acetylglucosamine], for which the “Inhibition … by free hapten” value is recorded as “No significant inhibition”. For `CC(=O)N[C@H]1[C@H]([C@H](O)[C@H](O)CO)OC(O)(C(=O)O)C[C@@H]1O` (stereo partly drawn) [Neu5Ac, N-acetylneuraminic acid], the “Inhibition … by free hapten” value is recorded as “strong inhibition; also recorded: strong inhibitory effects”. As for `O=C[C@H](O)[C@@H](O)[C@@H](O)[C@H](O)CO` [galactose], the “Inhibition … by free hapten” value is “No significant inhibition”. As for `OC[C@H]1OC(O)[C@H](O)[C@@H](O)[C@@H]1O` (stereo partly drawn) [glucose], the “Inhibition … by free hapten” value is “No significant inhibition”.

In the case of `OC[C@H]1OC(O)[C@@H](O)[C@@H](O)[C@@H]1O` (stereo partly drawn) [mannose], the “Inhibition … by free hapten” value was “No significant inhibition”.

Values taken from article PMC11586995, “Screening and Characterization of Sialic Acid-Binding Variable Lymphocyte Receptors from Hagfish” (BioTech, 2024).
